{"source": "paper PMC11730522", "about": "(BMC Pharmacology & Toxicology, 2025)", "assay": "Pharmacokinetic study, plasma EZ levels by HPLC", "type": "in vivo, rats"}
{"smiles": "O=C1[C@H](CC[C@H](O)c2ccc(F)cc2)[C@@H](c2ccc(O)cc2)N1c1ccc(F)cc1", "note": "[EZ, Ezetimibe]", "values": [{"measurement": "drop of plasma level of EZ from the highest level", "setting": "after 4 h", "result": 50, "unit": "%"}, {"measurement": "Tmax", "setting": "rat, plasma, po, 10 mg/kg", "result": 2, "unit": "h"}, {"measurement": "peak plasma concentration of EZ", "setting": "rats, oral", "result": "24.36 ± 1.36", "unit": "µg/mL"}]}
